Results reported in a melting point compilation (Tetko et al.; mined from patent text by program, amines drawn as free bases though some values may be those of a salt).

melting point [°C]	SMILES
221 to 222	CN1C(=O)C(C)(C)C(=O)N(C)c2cc(N)ccc21
158 to 160	N#Cc1c2c(c3c(c1N1CCCC1)Cc1ccccc1-3)Cc1ccccc1-2
83 to 84	CC(C)N(CCCNC(=O)Cn1ncc(-c2ccccc2)c1-c1ccccc1)C(C)C
64 to 66	CNC(=O)CCCCCCCCn1ccnc1
198 to 201	Cn1c(CCSN2CCC3(CC2)CC(=O)c2cc(NS(C)(=O)=O)ccc2O3)cc(=O)n(C)c1=O
207 to 208	COc1ccc(N2CCN(Cc3n[nH]c4c3CCc3ccccc3-4)CC2)cc1
96 to 98	OC(CCC(O)(C(F)(F)F)C(F)(F)F)(C(F)(F)F)C(F)(F)F
43 to 45	CCCN(CCC)C(C)(C)CC(C)(C)C
151 to 152	CCc1sc(N)nc1-c1cc(Br)no1
168 to 170	CC1(C)CCN(Cc2ccc(COc3cccc4c3CN(C3CCC(=O)NC3=O)C4=O)cc2)CC1 (stereo unspecified)
144 to 146	CCON=C(CC)C1=C(O)CC(c2ccc3c(c2)NC(=O)C(C)O3)CC1=O (stereo unspecified)
129 to 131	CCc1c(COC(C)=O)nc(-c2ccc(OC)c(OC)c2)c2cc(OC)c(OC)cc12
195 to 198	CCOc1cc(C#N)ccc1C(=O)Nc1cc(Cl)c(Cl)cc1N
76 to 77	CC(=O)C1Oc2c(C(C)(C)C)cc(Cl)cc2C1(C)C (stereo unspecified)
189 to 199	O=C(O)CCCCC1SCc2[nH]c(=O)[nH]c21 (single isomer, unassigned; (-))
170 to 171	O=C1CC(c2ccccc2Cl)=Nc2c1cccc2C(=O)OCCO
48 to 50	O=C(Sc1ccccn1)c1ccccc1
91 to 93	COc1nn(-c2cccc(N3CCCC3=O)c2)c(=O)n(Cc2ccc(Cl)cc2)c1=O
125 to 127	Cc1cccc(C)c1NC(=O)Nc1ccc(CC(=O)NC(CC(C)C)c2ncc(CCC(=O)O)s2)cc1 (stereo unspecified)
131 to 134	COc1cc(O)c2c(c1)CC(C(=O)Nc1ccc(CC3SC(=O)NC3=O)cc1)SCC2=O (stereo unspecified)
128 to 132	COc1cc(Cc2cnc(N)nc2N)c2c(c1OC)OC(C)CC2=O (stereo unspecified)
170 to 171	CC(C)(C)OC(=O)NCCc1cccc(-c2nc(=O)c3ccccc3s2)n1
85 to 93	CC1(C)SC2C(NC(=O)CNC(=O)c3ccccc3)C(=O)N2C1c1nnn[nH]1 (stereo unspecified)
98 to 99.8	CCOC(=O)Cn1c(-c2cccc(Cl)c2)nc2cccnc21
66 to 68	CC(=O)N1CCN(N)c2ccccc2C1

melting point [°C]	SMILES
138 to 140	OCc1c(Cl)ccc2nnsc12
113 to 114	OCc1nc(-c2cccs2)cs1
148 to 150	O=C(OC(c1ccccc1)c1ccccc1)C1=C(Sc2ccccc2)CC2CC(=O)C12 (stereo unspecified)
245 to 247	Cc1c(N2CC(O)C2)c(F)cc2c(=O)c(C(=O)O)cn(-c3nc(N)c(F)cc3F)c12
100 to 102	C=CCn1cc2c(c1)-c1ccc(Cl)cc1C(c1ccccc1F)=NC2
140 to 142	CCNC(=O)C(=O)[C@H](Cc1ccccc1)NC(=O)[C@H](CC(C)C)NC(=O)OC1CCOCC1
232 to 234	Cc1oc2c(C)c(C)c(N3C(=O)c4ccccc4C3=O)c(C)c2c1-c1ccc(C(C)C)cc1
240 to 243	CN(C)S(=O)(=O)c1ccc2c(c1)S(=O)(=O)NC1CCCN21 (stereo unspecified)
168 to 169	CC(=O)c1ccccc1Nc1ccc(O)cc1
224 to 226	O=C(NC1CCSC2COCC(C(=O)O)N2C1=O)C(S)Cc1ccccc1 (stereo unspecified)
110 to 112	O=C(O)CS(=O)(=O)Nc1ccc(F)cc1F
137 to 138	Clc1ccc(-c2cc(C3CC3)n3nccc3n2)cc1
302 to 305	NC(=O)Cc1nn(-c2ccccn2)c2[nH]c3ccccc3c(=O)c12
169 to 172	CC(C)c1ccc2c(c1)c(S(=O)(=O)c1ccccc1)c(CC(C)(C)C(=O)O)n2Cc1ccc(Cl)cc1
182 to 184	COc1ccc(-c2cn(C)cc(-c3ccc(OC)c(OC)c3)c2=O)cc1OC
52 to 56	CCCCCCCCSCN1CN(CSCCCCCCCC)c2cccc3cccc1c23
73 to 75	COCC(=O)O[C@@H]1[C@@H](c2ccccc2)Nc2c(ccn3c(C)c(C)nc23)[C@@H]1OC
194 to 200	CCCn1nc2c(N)nc3c(c2c1CCCCO)CCCC3
76.7	COC(=O)c1cc(C=O)ccc1[N+](=O)[O-]
146 to 148	Nc1cc(OCC2CCCCO2)c(C(=O)O)cc1Cl (stereo unspecified)
97 to 98	COc1cc(-c2ccc(F)cc2)nc(-c2ccccn2)n1
160	Cc1c(SCC(=O)N2CCOC(CN(C)C)C2)ccnc1CSc1nc2ccccc2[nH]1 (stereo unspecified)
170 to 173	Cc1ccc([N+](=O)[O-])cc1Nc1cc(-c2cccnc2)ccn1
78 to 79	O=C(O)CCc1cn(Cc2cc(OCc3csc(-c4ccccc4)n3)cc(OCc3csc(-c4ccccc4)n3)c2)cc1-c1ccccc1
100 to 102	CCNS(=O)(=O)c1ccccc1C1CCCCC1

melting point [°C]	SMILES
60 to 61	COc1ccc(C(=O)O[Si](C)(C)C)cc1
94 to 97	COC(=O)CCCC(C)(C)c1ccc(O)c(C(C)=O)c1O
217 to 219	CCn1c(=N)c(-c2c(Cl)cccc2Cl)cc2cnc(SC)nc21
114 to 118	CNC(=S)NN=C(CCCNC(=O)c1ccccc1)c1ccccc1
104 to 105	C=CC[C@H](C(=O)NC)c1ccc(Cl)c(Cl)c1
153 to 155	CCOc1cn(C)cc(-c2cccc(C(F)(F)F)c2)c1=S
209 to 211	Cc1ccc(-n2ncc(C(=O)O)n2)cc1
57 to 59	CSc1nc(Cl)nc(Cl)n1
243 to 244	COc1ccc(CC2SC(=O)NC2=O)c2c1N(Cc1ccc(C(=O)Nc3ccc(C(C)C)cc3)cc1)C(=O)CC2 (stereo unspecified)
137 to 138	CCOC(=O)C12CCNC(=O)CC1COC2=O (stereo unspecified)
186	CN(C)c1ccc(CN=C(Cc2ccccc2)N2CC3C(=O)CCC(c4ccccc4)(c4ccccc4)C3C2)cc1 (stereo unspecified)
215 to 216	CCCS(=O)c1ccc2[nH]c(NC(=O)OC)nc2c1 (stereo unspecified)
> 300	O=C1OC(=O)c2cc3ncccc3c3cc([N+](=O)[O-])cc1c23
172 to 174	O=C(Nc1ccccc1O)c1ccc(O)c(Cl)c1
128 to 130	Cn1c(-c2ccccc2F)nnc1S(C)(=O)=O
188 to 190	CC1COc2c(ccc(F)c2F)N1C(=O)C=NO (stereo unspecified)
90 to 91	OC1(F)OC(F)(F)C1(F)F (stereo unspecified)
157 to 159	CC(C)Oc1ccc2c(c1)N(C)C(=O)N(c1ccc(Cl)cc1)S2(=O)=O
99 to 101	CC(C)[C@H](NC(=O)[C@@H](C)c1ccc(Nc2nc(C(F)(F)F)cs2)cc1)C(=O)O
66 to 68	CC#CCOc1ccc(S(=O)(=O)NC2(C(=O)NO)CCCC2)cc1
205	CCSc1c(CO)nc(C)n1Cc1ccc(-c2ccccc2C(=O)O)cc1
165 to 167	COc1cccc(F)c1-c1ccc(NC(=O)OC(C)(C)C)c(N)c1
194	Cc1ccc(S(=O)(=O)NC(=O)OCCc2ccc(-n3c(-c4ccccc4)nc4c(C)nc(C)cc43)cc2)cc1
166 to 168	O=C(O)C(=O)CC(=O)c1cccn1Cc1cc(F)cc(F)c1
110 to 112	COc1ccccc1OCC1SCCN1C(=S)CC(=O)c1cc(OC)c(OC)c(OC)c1 (stereo unspecified)

melting point [°C]	SMILES
117 to 118	C/C(=C\C=C\Cn1oc(=O)[nH]c1=O)c1cccc(OCc2nc(-c3ccccc3)oc2C)c1
155	CC(=O)c1ccc2c(c1)Cc1ccc(C(C)=O)cc1-2
196 to 197	Nc1nc2[nH]c(CCC#Cc3ccc(C(=O)N[C@@H](CCC(=O)O)C(=O)O)s3)cc2c(=O)[nH]1
91 to 92	Cc1nn(C)cc1C(=O)Nc1ccccc1
297 to 299	O=C1NC(=S)SC1=Cc1ccc2c(c1)N(Cc1cccc(-c3ccncc3)c1)C(=O)CO2
65 to 70	Cc1c(OCCCO)ccnc1CO
105 to 109	FC(F)(F)c1ccc(OCCc2c[nH]cn2)cc1
67 to 68	CC(C)c1cc(CCCOc2nn(C)cc2CC(=O)O)n(Cc2ccc(Cl)cc2Cl)n1
138 to 143	CN(C)Nc1cc(Cl)c(Cl)cc1[N+](=O)[O-]
134 to 136	COCc1ccoc1-c1cccc(-n2c(N)nc3ccccc32)c1
159 to 160	Cc1cc(Nc2ccnc(Nc3ccc(S(=O)(=O)N(C)C4CCN(Cc5cccn5C)CC4)cc3)n2)ccc1F
85 to 86	CCOC(=O)c1c(C)cc2cnc(-c3ccccc3)nc2c1C
110 to 111	CCCN(CCC)Cc1coc(-c2ncn3c2CN(C)C(=O)c2sccc2-3)n1
182 to 185	CSc1cccc(SC)c1S(=O)(=O)NC(C)(C)C
96 to 98	Cc1cc(C(C)(C)C)c(O)cc1[N+](=O)[O-]
133 to 134	CN1CCN(C)C1=Nc1ccccc1N1CCOCC1
191 to 194	O=C(Nc1ccc(CN2C(=O)[C@H]3CCC[C@H]3N(C(=O)CN3C(=O)c4ccccc4C3=O)c3ccccc32)cc1)c1ccc(Cl)cc1 (relative stereo)
161 to 163	O=C(O)c1ccc(NCCc2cccs2)cc1
255 to 256	CC(=O)NCc1nc(-c2csc(N=C(N)N)n2)cs1
154	COc1ccc(C(O)(CN2CCNC2=O)c2ccccc2)cc1OC (stereo unspecified)
195 to 200	COC(=O)C(NS(=O)(=O)c1ccc(-c2ccc(NC(=O)c3cc4ccccc4o3)cc2)cc1)C(C)C (stereo unspecified)
216 to 218	NCC(=O)NCc1cc(=O)c(O)co1
157	CCC1(CC(=O)O)OCCc2c1[nH]c1c(OCC(F)(F)F)c(Cl)ccc21 (stereo unspecified)
87 to 88	CC(C)(C)OC(=O)C1C=CCn2c(=O)n(CCCl)c(=O)n21 (stereo unspecified)
96 to 98	CCOC(=O)CC[C@H](NC(=O)Oc1ccc(CCCCc2c(N)nc(N)nc2O)s1)C(=O)OCC

SMILES	melting point [°C]
C/C=C/c1cc2c(s1)[C@@H](OC(C)=O)[C@H](OC(C)=O)C[C@]2(OC(C)=O)C(=O)OC	140 to 143
